Measured values published in publication PMC11273936, “The Antimicrobial Peptide Capitellacin: Chemical Synthesis of Analogues to Probe the Role of Disulphide Bridges and Their Replacement with Vinyl Sulphides” (Antibiotics, 2024).
≈ marks a conversion by molar mass, not a printed value. Values belong to the compound of their own block, whether it stands above or below them.

Experiments:
S. aureus ATCC 25913 = experiment: MIC assay, bacteria (CLSI broth microdilution); format: cell-based; conditions: Staphylococcus aureus, ATCC25913, Gram positive, CA-MHB, 37 °C with shaking, 18 h, ~5 x10^5 CFU/mL, triplicate, three biological replicates, read-out: Minimum Inhibitory Concentrations, S. aureus ATCC 25913
P. aeruginosa SVB-B9 = experiment: MIC assay, bacteria (CLSI broth microdilution); format: cell-based, Pseudomonas aeruginosa; conditions: Gram negative, CA-MHB, 37 °C with shaking, 18 h, ~5 x10^5 CFU/mL, triplicate, three biological replicates
E. coli ATCC 25922 = experiment: MIC assay, bacteria (CLSI broth microdilution); format: cell-based, Escherichia coli; conditions: Gram negative, CA-MHB, 37 °C with shaking, 18 h, ~5 x10^5 CFU/mL, triplicate, three biological replicates
C. albicans SC5314 = experiment: MIC assay, fungus (CLSI broth microdilution); format: cell-based; conditions: Candida albicans, RPMI 1640, 35 °C, 48 h, 0.5 x 10^3 to 2.5 x 10^3 CFU/mL, triplicate, three independent assays, read-out: Minimum Inhibitory Concentrations, C. albicans SC5314 (reference strain)

MIC (S. aureus ATCC 25913): 2 µM (≈ 0.731 µg/mL)
Compound: CC1(C)S[C@@H]2[C@H](NC(=O)[C@H](N)c3ccc(O)cc3)C(=O)N2[C@H]1C(=O)O [AMX, amoxicillin]

Compound: polymyxin B [PMB]
Minimum Inhibitory Concentrations, P. aeruginosa SVB-B9 (type strain) (P. aeruginosa SVB-B9): 0.125 µM
Minimum Inhibitory Concentrations, E. coli ATCC 25922 (E. coli ATCC 25922): 0.125 µM

MIC (C. albicans SC5314): 1 µM (≈ 0.924 µg/mL)
Compound: C[C@@H]1[C@H](O)[C@@H](C)/C=C/C=C/C=C/C=C/C=C/C=C/C=C/[C@H](O[C@@H]2O[C@H](C)[C@@H](O)[C@H](N)[C@@H]2O)C[C@@H]2O[C@](O)(C[C@@H](O)C[C@@H](O)[C@H](O)CC[C@@H](O)C[C@@H](O)CC(=O)O[C@H]1C)C[C@H](O)[C@H]2C(=O)O [AMB, amphotericin B]
